From ChEMBL document CHEMBL1201862, “PubChem BioAssay data set” (2004)
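A five-concentration, 48-hour dose response in 96-well plates underlies each endpoint, interpolated linearly between surrounding concentrations. At the GI50, growth is halved.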 Activity calls are given as the source filed them. Cut-off read from the data, not from the text of the source: active = GI50 up to about 1.1 µM and inactive = higher.

Key:
Test in all cases: growth of human tumour cells (NCI), 48 h
NCI-H226 = system: NCI-H226
UO-31 = system: UO-31
MCF7 = system: MCF7
SF-539 = system: SF-539
T47D = system: T47D
EKVX = system: EKVX
HOP-62 = system: HOP-62
HOP-92 = system: HOP-92
HCC 2998 = system: HCC 2998
IGROV-1 = system: IGROV-1
OVCAR-3 = system: OVCAR-3
RPMI-8226 = system: RPMI-8226
DU-145 = system: DU-145
MDA-MB-435 = system: MDA-MB-435
HCT-116 = system: HCT-116
NCI-H460 = system: NCI-H460
BT-549 = system: BT-549
SF-268 = system: SF-268
OVCAR-5 = system: OVCAR-5
ACHN = system: ACHN
HT-29 = system: HT-29
NCI/ADR-RES = system: NCI/ADR-RES
OVCAR-4 = system: OVCAR-4
PC-3 = system: PC-3
MDA-MB-231 = system: MDA-MB-231
SR = system: SR
SK-MEL-5 = system: SK-MEL-5
MOLT-4 = system: MOLT-4
NCI-H23 = system: NCI-H23
Hs-578T = system: Hs-578T
KM12 = system: KM12
LOX IMVI = system: LOX IMVI
786-0 = system: 786-0
TK-10 = system: TK-10
SW-620 = system: SW-620
NCI-H522 = system: NCI-H522
OVCAR-8 = system: OVCAR-8
SNB-75 = system: SNB-75
CAKI-1 = system: CAKI-1
UACC-257 = system: UACC-257
MDA-N = system: MDA-N
SK-MEL-2 = system: SK-MEL-2
RXF 393 = system: RXF 393
HCT-15 = system: HCT-15
SK-MEL-28 = system: SK-MEL-28
SF-295 = system: SF-295
M14 = system: M14
A549 = system: A549
K562 = system: K562
HL-60 = system: HL-60
A498 = system: A498
U-251 = system: U-251
COLO 205 = system: COLO 205
SK-OV-3 = system: SK-OV-3
UACC-62 = system: UACC-62
SN12C = system: SN12C
Malme-3M = system: Malme-3M
SNB-19 = system: SNB-19

Compound: CC1(C)C2CCC1(C)[C@H](n1c(=O)n([C@@H]3CC4CCC3(C)C4(C)C)c(=O)n([C@@H]3CC4CCC3(C)C4(C)C)c1=O)C2
- GI50 (NCI-H226): 27.7 µM (inactive)
- GI50 (UO-31): 38.7 µM (inactive)
- GI50 (MCF7): 71.9 µM (inactive)
- GI50 (SF-539): 17.8 µM (inactive)
- GI50 (T47D): 42.6 µM (inactive)
- GI50 (EKVX): 30 µM (inactive)
- GI50 (HOP-62): 44.4 µM (inactive)
- GI50 (HOP-92): 87.7 µM (inactive)
- GI50 (HCC 2998): 22 µM (inactive)
- GI50 (IGROV-1): 65.6 µM (inactive)
- GI50 (OVCAR-3): 35.4 µM (inactive)
- GI50 (RPMI-8226): 57.9 µM (inactive)
- GI50 (DU-145): 55.7 µM (inactive)
- GI50 (MDA-MB-435): 76.7 µM (inactive)
- GI50 (HCT-116): 36.7 µM (inactive)
- GI50 (NCI-H460): 31.2 µM (inactive)
- GI50 (BT-549): 67.1 µM (inactive)
- GI50 (SF-268): 41.6 µM (inactive)
- GI50 (OVCAR-5): 64 µM (inactive)
- GI50 (ACHN): 37.8 µM (inactive)
- GI50 (HT-29): 56.8 µM (inactive)
- GI50 (NCI/ADR-RES): > 100 µM (inactive)
- GI50 (OVCAR-4): > 100 µM (inactive)
- GI50 (PC-3): 67.9 µM (inactive)
- GI50 (MDA-MB-231): 45.5 µM (inactive)
- GI50 (SR): 71.4 µM (inactive)
- GI50 (SK-MEL-5): 34 µM (inactive)
- GI50 (MOLT-4): 63.4 µM (inactive)
- GI50 (NCI-H23): 63 µM (inactive)
- GI50 (Hs-578T): 37.9 µM (inactive)
- GI50 (KM12): 58.1 µM (inactive)
- GI50 (LOX IMVI): > 100 µM (inactive)
- GI50 (786-0): 28 µM (inactive)
- GI50 (TK-10): 42.9 µM (inactive)
- GI50 (SW-620): 98.2 µM (inactive)
- GI50 (NCI-H522): 37.4 µM (inactive)
- GI50 (OVCAR-8): 49.9 µM (inactive)
- GI50 (SNB-75): 16.2 µM (inactive)
- GI50 (CAKI-1): 66.7 µM (inactive)
- GI50 (UACC-257): 55.8 µM (inactive)
- GI50 (MDA-N): 68.4 µM (inactive)
- GI50 (SK-MEL-2): 22.3 µM (inactive)
- GI50 (RXF 393): 19.8 µM (inactive)
- GI50 (HCT-15): 49.2 µM
- GI50 (SK-MEL-28): 92 µM (inactive)
- GI50 (SF-295): 29.6 µM (inactive)
- GI50 (M14): > 100 µM (inactive)
- GI50 (A549): 31.8 µM (inactive)
- GI50 (K562): 85.9 µM (inactive)
- GI50 (HL-60): 23.9 µM (inactive)
- GI50 (A498): 88.5 µM (inactive)
- GI50 (U-251): 25.3 µM (inactive)

Compound: O=C(NCc1cccnc1)C(=O)NCc1cccnc1
- GI50 (NCI-H226): > 100 µM (inactive)
- GI50 (UO-31): > 100 µM (inactive)
- GI50 (MCF7): > 100 µM (inactive)
- GI50 (SF-539): > 100 µM (inactive)
- GI50 (T47D): > 100 µM (inactive)
- GI50 (EKVX): > 100 µM (inactive)
- GI50 (HOP-62): > 100 µM (inactive)
- GI50 (HOP-92): > 100 µM (inactive)
- GI50 (HCC 2998): > 100 µM (inactive)
- GI50 (IGROV-1): > 100 µM (inactive)
- GI50 (OVCAR-3): > 100 µM (inactive)
- GI50 (RPMI-8226): > 100 µM (inactive)
- GI50 (COLO 205): > 100 µM (inactive)
- GI50 (DU-145): > 100 µM (inactive)
- GI50 (MDA-MB-435): > 100 µM (inactive)
- GI50 (HCT-116): > 100 µM (inactive)
- GI50 (SK-OV-3): > 100 µM (inactive)
- GI50 (NCI-H460): > 100 µM (inactive)
- GI50 (BT-549): > 100 µM (inactive)
- GI50 (SF-268): > 100 µM (inactive)
- GI50 (OVCAR-5): > 100 µM (inactive)
- GI50 (ACHN): > 100 µM (inactive)
- GI50 (HT-29): > 100 µM (inactive)
- GI50 (NCI/ADR-RES): > 100 µM (inactive)
- GI50 (OVCAR-4): > 100 µM (inactive)
- GI50 (PC-3): > 100 µM (inactive)
- GI50 (MDA-MB-231): > 100 µM (inactive)
- GI50 (SR): 81.1 µM (inactive)
- GI50 (SK-MEL-5): > 100 µM (inactive)
- GI50 (MOLT-4): 0.149 µM (active)
- GI50 (NCI-H23): > 100 µM (inactive)
- GI50 (Hs-578T): > 100 µM (inactive)
- GI50 (UACC-62): > 100 µM (inactive)
- GI50 (KM12): > 100 µM (inactive)
- GI50 (LOX IMVI): > 100 µM (inactive)
- GI50 (786-0): > 100 µM (inactive)
- GI50 (TK-10): > 100 µM (inactive)
- GI50 (SW-620): > 100 µM (inactive)
- GI50 (SN12C): > 100 µM (inactive)
- GI50 (NCI-H522): > 100 µM (inactive)
- GI50 (OVCAR-8): > 100 µM (inactive)
- GI50 (SNB-75): > 100 µM (inactive)
- GI50 (CAKI-1): > 100 µM (inactive)
- GI50 (UACC-257): > 100 µM (inactive)
- GI50 (MDA-N): > 100 µM (inactive)
- GI50 (SK-MEL-2): > 100 µM (inactive)
- GI50 (RXF 393): > 100 µM (inactive)
- GI50 (Malme-3M): > 100 µM (inactive)
- GI50 (HCT-15): > 100 µM
- GI50 (SK-MEL-28): > 100 µM (inactive)
- GI50 (SF-295): > 100 µM (inactive)
- GI50 (M14): > 100 µM (inactive)
- GI50 (A549): > 100 µM (inactive)
- GI50 (K562): > 100 µM (inactive)
- GI50 (HL-60): 27.4 µM (inactive)
- GI50 (A498): > 100 µM (inactive)
- GI50 (SNB-19): > 100 µM (inactive)
- GI50 (U-251): > 100 µM (inactive)

Compound: CN(CCc1ccc(Cl)c(Cl)c1)[C@H]1CCCC[C@H]1N1CCCC1
- GI50 (NCI-H226): > 100 µM (inactive)
- GI50 (UO-31): > 100 µM (inactive)
- GI50 (MCF7): > 100 µM (inactive)
- GI50 (T47D): > 100 µM (inactive)
- GI50 (EKVX): > 100 µM (inactive)
- GI50 (HOP-62): > 100 µM (inactive)
- GI50 (HOP-92): > 100 µM (inactive)
- GI50 (HCC 2998): > 100 µM (inactive)
- GI50 (IGROV-1): > 100 µM (inactive)
- GI50 (OVCAR-3): > 100 µM (inactive)
- GI50 (RPMI-8226): > 100 µM (inactive)
- GI50 (COLO 205): > 100 µM (inactive)
- GI50 (DU-145): > 100 µM (inactive)
- GI50 (MDA-MB-435): > 100 µM (inactive)
- GI50 (HCT-116): > 100 µM (inactive)
- GI50 (SK-OV-3): > 100 µM (inactive)
- GI50 (BT-549): > 100 µM (inactive)
- GI50 (SF-268): > 100 µM (inactive)
- GI50 (OVCAR-5): > 100 µM (inactive)
- GI50 (ACHN): > 100 µM (inactive)
- GI50 (HT-29): > 100 µM (inactive)
- GI50 (NCI/ADR-RES): > 100 µM (inactive)
- GI50 (OVCAR-4): > 100 µM (inactive)
- GI50 (PC-3): > 100 µM (inactive)
- GI50 (MDA-MB-231): > 100 µM (inactive)
- GI50 (SR): > 100 µM (inactive)
- GI50 (SK-MEL-5): > 100 µM (inactive)
- GI50 (MOLT-4): > 100 µM (inactive)
- GI50 (NCI-H23): > 100 µM (inactive)
- GI50 (Hs-578T): > 100 µM (inactive)
- GI50 (UACC-62): > 100 µM (inactive)
- GI50 (KM12): > 100 µM (inactive)
- GI50 (LOX IMVI): > 100 µM (inactive)
- GI50 (786-0): > 100 µM (inactive)
- GI50 (TK-10): > 100 µM (inactive)
- GI50 (SW-620): > 100 µM (inactive)
- GI50 (SN12C): > 100 µM (inactive)
- GI50 (NCI-H522): > 100 µM (inactive)
- GI50 (OVCAR-8): > 100 µM (inactive)
- GI50 (CAKI-1): > 100 µM (inactive)
- GI50 (UACC-257): > 100 µM (inactive)
- GI50 (MDA-N): > 100 µM (inactive)
- GI50 (SK-MEL-2): > 100 µM (inactive)
- GI50 (RXF 393): > 100 µM (inactive)
- GI50 (Malme-3M): > 100 µM (inactive)
- GI50 (HCT-15): > 100 µM
- GI50 (SK-MEL-28): > 100 µM (inactive)
- GI50 (SF-295): > 100 µM (inactive)
- GI50 (M14): > 100 µM (inactive)
- GI50 (A549): > 100 µM (inactive)
- GI50 (K562): > 100 µM (inactive)
- GI50 (HL-60): > 100 µM (inactive)
- GI50 (A498): > 100 µM (inactive)
- GI50 (SNB-19): > 100 µM (inactive)
- GI50 (U-251): > 100 µM (inactive)
